From paper PMC4266338 (ACS Medicinal Chemistry Letters, 2014)
One block for each compound: values may come before it.

Legend:
CHOP = assay: CHO-CHOP-luciferase reporter assay; type: cell-based, Chinese hamster; conditions: for UPR CHOP AC50 ± SEM: CHO-CHOP-luciferase cells, averaged from n ≥ 4 experiments
[1] = system: human tumor cell line panel (NCI-60); assay: NCI-60 human tumor cell line panel; type: cell-based; conditions: colon, melanoma, and renal cancer cell lines
[2] = Mouse pharmacokinetics IV and IP; conditions: male CD-1 mice, IV 2 mg/kg single dose
[3] = Hepatic microsome stability, human; type: in vitro ADME; conditions: 37°C, after 1 hr
H460/T800 = assay: OSCC proliferation assay H460/T800; type: cell-based, human; conditions: H460/T800, 24 h
HN30 = assay: OSCC proliferation assay HN30; type: cell-based; conditions: Homo sapiens, 24 h, read-out: potency, dose–response proliferation assay
PAMPA permeability = type: in vitro ADME; conditions: donor pH 5.0, 6.2, and 7.4
[4] = system: Chop knockout murine embryonic fibroblast (MEF) cells; assay: MEF proliferation assay, Chop knockout; type: cell-based, mouse; conditions: concentrations up to 20 μM, 24 h, Figure S1
[5] = Hepatic microsome stability, mouse; type: in vitro ADME; conditions: 37°C, after 1 hr
HN6 = assay: OSCC proliferation assay HN6; type: cell-based, human; conditions: HN6, 24 h
A253 = assay: OSCC proliferation assay A253; type: cell-based, human; conditions: A253, 24 h
Aqueous solubility = type: physicochemical; conditions: through a biologically relevant pH range
[6] = Chemical stability toward thiol nucleophiles; type: physicochemical; conditions: 10 μM in PBS pH 7.4, 1% DMSO, 8 h, room temperature

SMILES: O=C(Nc1ccc(S(=O)(=O)N2CCOCC2)cc1)c1ccc(Br)o1 [Compound 29]
UPR CHOP AC50 ± SEM (CHOP): loss of activity

SMILES: O=C(Nc1ccc(S(=O)(=O)N2CCC(O)CC2)cc1)c1ccc([N+](=O)[O-])o1 [Compound 9]
UPR CHOP AC50 ± SEM (CHOP): on par with activity observed with hit 3

SMILES: CC1(C)CCN(S(=O)(=O)c2ccc(NC(=O)c3ccc(C(F)(F)F)o3)cc2)CC1 [Compound 30]
UPR CHOP AC50 ± SEM (CHOP): loss of activity

SMILES: Cc1ccc(C(=O)Nc2ccc(S(=O)(=O)N3CCOCC3)cc2)o1 [Compound 28]
UPR CHOP AC50 ± SEM (CHOP): loss of activity

SMILES: O=C(Nc1ccc(S(=O)(=O)N2CCNCC2)cc1)c1ccc([N+](=O)[O-])o1 [Compound 8]
loss of activity (CHOP; CHOP activation relative to hit 3): ~14 fold

Now from value to compound, other results behind:

UPR CHOP AC50 ± SEM (CHOP): loss of activity
SMILES: O=C(Nc1ccc(S(=O)(=O)N2CCOCC2)cc1)c1ccco1 [Compound 27]

IV dose cleared from circulation within [2]: ≤ 30 min | Hepatic Microsome Stability percent remaining [3]: almost completely metabolized | PAMPA permeability in words (PAMPA permeability): good permeability | Hepatic Microsome Stability percent remaining [5]: almost completely metabolized | Aqueous stability in PBS and pION buffer (Aqueous solubility): 8.7–9.7 μM | compound remaining with dithiothreitol (DTT) ([6]; 5-fold excess DTT): 100% | compound remaining with glutathione (GSH) ([6]; 5-fold excess GSH): 100%
SMILES: O=C(Nc1ccc(S(=O)(=O)N2CCC(Cl)CC2)cc1)c1ccc([N+](=O)[O-])o1 [Compound 12]
growth inhibition potency [1]: low micromolar potency | sensitivity, dose–response proliferation assay (H460/T800): more resistant | EC50 (HN30): 9 ± 1.1 µM | effect on Chop-null MEF cells [4]: unaffected | sensitivity, dose–response proliferation assay (HN6): more resistant | sensitivity, dose–response proliferation assay (A253): more resistant
